# Laboratory results as given in publication PMC10794144, “A novel antibiotic class targeting the lipopolysaccharide transporter” (Nature, 2024).
# Where two headings read alike, the source gives them in different places.
# Experiments:
# P. aeruginosa = test: MIC versus efflux impaired and porin deficient strains; type: cell-based, Pseudomonas aeruginosa
# Description: (§1) MIC determinations were performed using the broth microdilution method and in line with CLSI guidelines M07 and M100 (refs. [37],[38]). Bacterial inocula were prepared by diluting a 0.5 McFarland suspension in CAMHB or lysogeny broth (LB) specifically for A. baylyi isolates. […] MIC values of all of the tested antibiotics were read as the lowest compound concentration inhibiting bacterial growth by naked eye or beyond which the OD600 ceased to decrease.
# K. pneumoniae = test: MIC versus efflux impaired strains; type: cell-based, Klebsiella pneumoniae
# Description: as §1
# [1] = Human plasma precipitation assay; design: key: 0: none; 1: mild; 2: moderate; 3: marked; details: observed only at 2 mg/mL (0.125–2 mg/mL tested)
# Description: For the plasma precipitation assay, test item formulations of compounds were diluted as follows with the vehicle (0.9% aqueous sodium chloride solution): undiluted, 1:2, 1:4, 1:8 and 1:16. These serial dilutions were then added into test tubes containing 0.5 ml of plasma to give a final assay volume of 1 ml with a final concentration of 4 mg ml^−1 assay volume or less. After centrifugation of the samples (1,811g; 10 min; at room temperature), plasma precipitation was visually determined by scoring the resulting pellet (score: 0, none; 1, mild; 2, moderate; 3, marked).
# [2] = system: A. baumannii MDR isolates; test: Single-step spontaneous mutation frequency; type: cell-based, Acinetobacter baumannii
# Description: Molten Mueller–Hinton agar (19 ml) supplemented with 20% human serum was added to 1 ml of compound at 20× the final concentration, poured immediately into Petri dishes (100 mm diameter) and gently mixed. Then, 2–3 colonies from agar plates were inoculated into CAMHB and incubated overnight under shaking (150 rpm). […] The agar plates were incubated aerobically at 35 ± 2 °C.
# A. baylyi LptB2FGC = test: LPS-release assay, proteoliposomes to LptA; type: biochemical, Acinetobacter baylyi
# Description: Proteoliposomes were prepared as described previously. Aqueous E. coli polar lipid extract (Avanti Polar Lipids) (30 mg ml^−1) and aqueous LPS from E. coli EH100 (Ra mutant; Sigma-Aldrich) (2 mg ml^−1) were sonicated briefly for homogenization. A mixture of 20 mM Tris-HCl (pH 8.0), 150 mM NaCl, 7.5 mg ml^−1 E. coli polar lipids, 0.5 mg ml^−1 LPS and 0.25% DDM was prepared and kept on ice for 10 min. Purified LptB2FGC was added to a final concentration of 0.86 μM, and the mixture was left on ice for 20 min. The mixture was diluted 100-fold with cold 20 mM Tris-HCl (pH 8.0) and 150 mM NaCl and kept on ice for 20 min. The proteoliposomes were pelleted (300,000g, 2 h, 4 °C), resuspended in 20 mM Tris-HCl (pH 8.0) and 150 mM NaCl, diluted 100× and centrifuged (300,000g, 2 h, 4 °C). The pellets were resuspended in a mixture of 20 mM Tris-HCl (pH 8.0), 150 mM NaCl and 10% glycerol (250 μl per 100 μl of the original predilution solution), homogenized by sonication, flash-frozen and stored at −80 °C until use.
# The levels of release of LPS from proteoliposomes to LptA were measured as previously described. Assays used 60% proteoliposomes (by volume) in a solution containing 50 mM Tris-HCl (pH 8.0), 500 mM NaCl, 10% glycerol and 2 µM LptA^I36pBPA. Reaction mixtures were incubated with drug for 10 min at room temperature, as applicable. […]
# [3] = system: A. baylyi ADP1 (ATCC 33305); test: MIC of constructed lptF mutants in LB, OD600; type: cell-based, Acinetobacter baylyi
# Description: as §1
# Culture, genetic manipulation and MIC measurements of A. baylyi ADP1 were conducted according to previously reported procedures[56],[57].
compound,measurement,setting,value
CN1C(=O)[C@H](CCCCN)NC(=O)[C@H](CCCN)NCc2cccnc2Sc2c(Cl)ccc(Cl)c2CNC(=O)[C@@H]1Cc1c[nH]c2ccccc12 [RO7075573],MIC,"P. aeruginosa; P. aeruginosa PAOD1, porin deficient, PAO1 Δ oprD",>64 µg/mL
same,MIC,"P. aeruginosa; Pseudomonas aeruginosa, P. aeruginosa PAO1, WT, read-out: MIC",> 64 µg/mL
same,MIC,"P. aeruginosa; Pseudomonas aeruginosa, P. aeruginosa PAO397, efflux impaired and porin deficient, read-out: MIC",64 µg/mL
same,MIC,"K. pneumoniae; K. pneumoniae 1161486a, efflux impaired, Δ acrAB",>64 µg/mL
same,MIC,"K. pneumoniae; Klebsiella pneumoniae, K. pneumoniae 1161486, WT, read-out: MIC",> 64 µg/mL
CN1C(=O)[C@H](CCCCN)NC(=O)[C@H](CCCN)NCc2cccnc2Sc2cccc(-c3ccc(C(=O)O)cc3)c2CNC(=O)[C@@H]1Cc1c[nH]c2ccccc12 [zosurabalpin],Precipitation score,[1],Observed only at 2 mg/mL^6 (1)
same,PROPORTION_R,"[2]; A. baumannii ACC00445, inoculum 3.30E+08, selection 2xMIC, 0.5 ug/ml",1.70E-07
same,PROPORTION_R,"[2]; A. baumannii ACC00445, inoculum 3.30E+08, selection 4xMIC, 1 ug/ml",6.50E-08
same,PROPORTION_R,"[2]; A. baumannii ACC00445, inoculum 3.30E+08, selection 8xMIC, 2 ug/ml",3.10E-09
same,PROPORTION_R,"[2]; A. baumannii ACC00445, inoculum 3.30E+08, selection 16xMIC, 4 ug/ml",<3.1E-09
same,PROPORTION_R,"[2]; A. baumannii ACC00535, inoculum 3.50E+08, selection 4xMIC, 0.5 ug/ml",1.50E-07
same,PROPORTION_R,"[2]; A. baumannii ACC00535, inoculum 3.50E+08, selection 8xMIC, 1 ug/ml",8.90E-08
same,PROPORTION_R,"[2]; A. baumannii ACC00535, inoculum 3.50E+08, selection 16xMIC, 2 ug/ml",<2.9E-09
same,PROPORTION_R,"[2]; A. baumannii ACC01073, inoculum 2.80E+08, selection 2xMIC, 2 ug/ml",1.10E-08
same,PROPORTION_R,"[2]; A. baumannii ACC01073, inoculum 2.80E+08, selection 4xMIC, 4 ug/ml",7.30E-09
same,PROPORTION_R,"[2]; A. baumannii ACC01073, inoculum 2.80E+08, selection 8xMIC, 8 ug/ml",<3.6E-09
same,PROPORTION_R,"[2]; A. baumannii ACC01073, inoculum 2.80E+08, selection 16xMIC, 16 ug/ml",<3.6E-09
same,PROPORTION_R,"[2]; A. baumannii ACC01077, inoculum 2.80E+08, selection 2xMIC, 0.5 ug/ml",3.60E-09
same,PROPORTION_R,"[2]; A. baumannii ACC01077, inoculum 2.80E+08, selection 4xMIC, 1 ug/ml",<3.6E-09
same,PROPORTION_R,"[2]; A. baumannii ACC01077, inoculum 2.80E+08, selection 8xMIC, 2 ug/ml",<3.6E-09
same,PROPORTION_R,"[2]; A. baumannii ACC01077, inoculum 2.80E+08, selection 16xMIC, 4 ug/ml",<3.6E-09
same,PROPORTION_R,"[2]; A. baumannii ACC01085_CDC AR307, inoculum 5.50E+08, selection 2xMIC, 0.5 ug/ml",1.10E-06
same,PROPORTION_R,"[2]; A. baumannii ACC01085_CDC AR307, inoculum 5.50E+08, selection 4xMIC, 1 ug/ml",<1.8E-09
same,PROPORTION_R,"[2]; A. baumannii ATCC BAA-747, inoculum 7.50E+07, selection 8xMIC, 0.5 ug/ml",<1.3E-08
same,PROPORTION_R,"[2]; A. baumannii ATCC BAA-747, inoculum 7.50E+07, selection 16xMIC, 1 ug/ml",<1.3E-08
same,PROPORTION_R,"[2]; A. baumannii ROB08706, inoculum 5.00E+07, selection 2xMIC, 2 ug/ml",4.00E-08
same,PROPORTION_R,"[2]; A. baumannii ROB08706, inoculum 5.00E+07, selection 4xMIC, 4 ug/ml",6.00E-08
same,PROPORTION_R,"[2]; A. baumannii ROB08706, inoculum 5.00E+07, selection 8xMIC, 8 ug/ml",<2.0E-08
same,PROPORTION_R,"[2]; A. baumannii ROB08706, inoculum 5.00E+07, selection 16xMIC, 16 ug/ml",<2.0E-08
same,PROPORTION_R,"[2]; A. baumannii ROB08708, inoculum 2.40E+08, selection 4xMIC, 0.5 ug/ml",1.10E-07
same,PROPORTION_R,"[2]; A. baumannii ROB08708, inoculum 2.40E+08, selection 8xMIC, 1 ug/ml",<4.2E-09
same,PROPORTION_R,"[2]; A. baumannii ROB08708, inoculum 2.40E+08, selection 16xMIC, 2 ug/ml",<4.2E-09
same,Single-step spontaneous mutation frequency,"[2]; ACC00445, 2× MIC",2 × 10^−7
same,Single-step spontaneous mutation frequency,"[2]; ACC00445, 4× MIC",7 × 10^−8
same,Single-step spontaneous mutation frequency,"[2]; ACC00445, 8× MIC",3 × 10^−9
same,Single-step spontaneous mutation frequency,"[2]; ACC00445, 16× MIC",<3 × 10^−9
same,Single-step spontaneous mutation frequency,"[2]; ACC00535, 2× MIC",2 × 10^−7
same,Single-step spontaneous mutation frequency,"[2]; ACC00535, 4× MIC",2 × 10^−7
same,Single-step spontaneous mutation frequency,"[2]; ACC00535, 8× MIC",9 × 10^−8
same,Single-step spontaneous mutation frequency,"[2]; ACC00535, 16× MIC",<3 × 10^−9
same,Single-step spontaneous mutation frequency,"[2]; ACC01073, 2× MIC",1 × 10^−8
same,Single-step spontaneous mutation frequency,"[2]; ACC01073, 4× MIC",7 × 10^−9
same,Single-step spontaneous mutation frequency,"[2]; ACC01073, 8× MIC",<4 × 10^−9
same,Single-step spontaneous mutation frequency,"[2]; ACC01073, 16× MIC",<4 × 10^−9
same,Single-step spontaneous mutation frequency,"[2]; ACC01077, 2× MIC",4 × 10^−9
same,Single-step spontaneous mutation frequency,"[2]; ACC01077, 4× MIC",<4 × 10^−9
same,Single-step spontaneous mutation frequency,"[2]; ACC01077, 8× MIC",<4 × 10^−9
same,Single-step spontaneous mutation frequency,"[2]; ACC01077, 16× MIC",<4 × 10^−9
same,Single-step spontaneous mutation frequency,"[2]; ACC01085/AR0307, 2× MIC",1 × 10^−6
same,Single-step spontaneous mutation frequency,"[2]; ACC01085/AR0307, 4× MIC",<2 × 10^−9
same,Single-step spontaneous mutation frequency,"[2]; ATCC BAA-747, 2× MIC",2 × 10^−7
same,Single-step spontaneous mutation frequency,"[2]; ATCC BAA-747, 4× MIC",<1 × 10^−8
same,Single-step spontaneous mutation frequency,"[2]; ATCC BAA-747, 8× MIC",<1 × 10^−8
same,Single-step spontaneous mutation frequency,"[2]; ATCC BAA-747, 16× MIC",<1 × 10^−8
same,Single-step spontaneous mutation frequency,"[2]; ROB08706, 2× MIC",4 × 10^−8
same,Single-step spontaneous mutation frequency,"[2]; ROB08706, 4× MIC",6 × 10^−8
same,Single-step spontaneous mutation frequency,"[2]; ROB08706, 8× MIC",<2 × 10^−8
same,Single-step spontaneous mutation frequency,"[2]; ROB08706, 16× MIC",<2 × 10^−8
same,Single-step spontaneous mutation frequency,"[2]; ROB08708, 2× MIC",2 × 10^−7
same,Single-step spontaneous mutation frequency,"[2]; ROB08708, 4× MIC",1 × 10^−7
same,Single-step spontaneous mutation frequency,"[2]; ROB08708, 8× MIC",<4 × 10^−9
same,Single-step spontaneous mutation frequency,"[2]; ROB08708, 16× MIC",<4 × 10^−9
same,LPS transport,A. baylyi LptB2FGC; complexes with LptF E249K or I317N,did not inhibit LPS transport
same,LPS extraction to LptA,"A. baylyi LptB2FGC; wild-type LptB2FGC proteoliposomes, biological triplicate",blocked LPS extraction at concentrations comparable to growth inhibitory concentrations
same,Fold MIC increase,[3]; constructed LptF (E249K&I317N),> 700
same,Fold MIC increase,[3]; constructed LptF E249K,242
same,Fold MIC increase,[3]; constructed LptF I317N,128
same,Fold MIC increase,[3]; constructed LptF K320T,20
same,Fold MIC increase,[3]; constructed LptF R322C,9
